Where a name gives a salt, the structure may show the parent alone. Read-outs that look alike come from different tables or passages of the source.
Experiments:
[1] = molecular target: thyroid hormone receptor (endogenous TRα and TRβ); assay: GH3-TRE-Ag primary qHTS, luciferase reporter, agonist mode (TOX21_TR_LUC_GH3_Agonist, aeid 803); type: cell-based, rat
[2] = molecular target: thyroid hormone receptor (endogenous TRα and TRβ); assay: GH3-TRE-Antag primary qHTS, luciferase reporter, antagonist mode with 1 nM T3 (TOX21_TR_LUC_GH3_Antagonist, aeid 804); type: cell-based, rat
GH3-TRE-Luc cell line [3] = tested on: GH3-TRE-Luc cell line
GH3-TRE-Luc cell line [4] = assay: GH3-TRE-Via cell viability, CellTiter-Fluor (TOX21_TR_LUC_GH3_Antagonist_viability, aeid 805)
in vitro [5] = settings: rat
[6] = Global cytotoxicity: eighteen Tox21 cell viability assays; type: cell-based
[7] = tested on: Tox21 cell viability assays (different cell types); assay: as above; type: cell-based
in vitro [8] = settings: rat, gh3-tre-luc cells, AC50 (uM) modified / 1000
[9] = tested on: thyroid hormone receptor (endogenous TRα and TRβ); assay: GH3-TRE-Ag-Followup confirmation (TOX21_TR_LUC_GH3_Agonist_Followup, aeid 2226); type: cell-based, rat
human RXRα = molecular target: T1, human RXRα (Homo sapiens, UniProt P19793); assay: RXRa-bla-Ag mammalian one-hybrid beta-lactamase assay (TOX21_TR_RXR_BLA_Agonist_Followup_ratio, aeid 2253); type: cell-based
T1 construct: host or cells: GeneBLAzer UAS-bla HEK 293T
T1 sequence (P19793 227-458 limits assumed): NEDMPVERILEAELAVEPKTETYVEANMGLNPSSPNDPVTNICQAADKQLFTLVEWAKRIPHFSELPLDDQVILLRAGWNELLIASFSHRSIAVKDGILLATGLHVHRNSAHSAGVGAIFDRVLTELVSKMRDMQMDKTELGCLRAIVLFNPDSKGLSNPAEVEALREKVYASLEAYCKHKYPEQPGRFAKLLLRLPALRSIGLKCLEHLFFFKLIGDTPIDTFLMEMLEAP

[10] = molecular target: T2, TRα ligand-binding domain (Homo sapiens, UniProt P10827); assay: TRa-coa LanthaScreen TR-FRET coactivator (SRC-2 peptide) recruitment, agonist (TOX21_TRA_COA_Agonist_Followup_ratio, aeid 2230); type: biochemical
T2 construct: the receptor LBDs expressed as glutathione S-transferase (GST) fusion proteins; purchased

[11] = tested on: thyroid hormone receptor (TR); assay: Classification of TR actives across characterization assays (TR-Ag / RXR-Ag; TR model binary); design: key to Categorization Code: FP, false positive; settings: TR agonist characterization
Excerpt: Active rate comparison between receptors. […]; [Kleinstreuer et al. 2017]). We first removed chemicals classified as pharmaceuticals because these sets of chemicals are biased toward drugs targeting estrogen receptors and androgen receptors. […]. For TR, we cross-referenced these same chemicals for testing against TR and used candidate chemicals in Tables 2 and 3 to define active rates.
Complete results from both GH3-TRE qHTS agonist, antagonist, and viability mode for the 8,305 compounds are provided in Excel Table S2. […]. […]. Together with some potential false negatives, these chemicals, totaling 84 in all, were screened for activity in a series of assays for confirmation in the GH3-TRE-Ag assay; specificity screening in the TRβ-UAS-bla HEK 293T and RXRα-UAS-bla HEK 293T mammalian one-hybrid assays; viability assays for the HEK293T parental cell line; and orthogonal screening in two TR:coactivator recruitment assays, TRa-coa and TRb-coa. […].

[12] = molecular target: T3, human TRβ ligand-binding domain (Homo sapiens, UniProt P10828); assay: TRb-bla agonist mammalian one-hybrid beta-lactamase assay (TOX21_TRB_BLA_Agonist_Followup_ratio, aeid 2236); type: cell-based; design: host or cells: GeneBLAzer UAS-bla HEK 293T
T3 sequence (P10828 217-461 limits assumed): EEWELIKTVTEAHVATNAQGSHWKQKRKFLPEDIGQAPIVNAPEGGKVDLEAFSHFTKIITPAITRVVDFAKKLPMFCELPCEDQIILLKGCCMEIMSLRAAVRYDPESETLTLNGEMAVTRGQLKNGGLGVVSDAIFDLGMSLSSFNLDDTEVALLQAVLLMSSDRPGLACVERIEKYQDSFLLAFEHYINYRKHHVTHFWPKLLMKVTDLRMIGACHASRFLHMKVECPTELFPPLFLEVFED

[13] = molecular target: T3, human TRβ ligand-binding domain; assay: TRb-coa LanthaScreen TR-FRET coactivator (SRC-2 peptide) recruitment, agonist (TOX21_TRB_COA_Agonist_Followup_ratio, aeid 2244); type: biochemical; design: host or cells: GeneBLAzer UAS-bla HEK 293T
[14] = antagonist candidates, inactive samples arbitrarily set to AC50=1,000 μM, read-out: GH3-TRE-Ag AC50
[15] = antagonist mode, 1 nM T3, read-out: GH3-TRE-Antag AC50

T2 sequence (P10827 163-410 isoform P10827-2 limits assumed, other chains not shown): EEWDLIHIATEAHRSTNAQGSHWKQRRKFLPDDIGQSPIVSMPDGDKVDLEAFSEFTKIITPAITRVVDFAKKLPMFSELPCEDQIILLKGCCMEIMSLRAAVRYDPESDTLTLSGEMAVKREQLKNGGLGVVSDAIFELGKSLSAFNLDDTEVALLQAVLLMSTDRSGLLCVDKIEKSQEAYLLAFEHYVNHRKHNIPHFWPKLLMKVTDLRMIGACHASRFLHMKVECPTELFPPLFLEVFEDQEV

For `CCC(=C(CC)c1ccc(O)cc1)c1ccc(O)cc1` [(Z,E)-Diethylstilbestrol, reference compound], the AC50 [1, 14] was over 92 µM, the AC50 [2, 15] was 17.1 µM and the AC50 (GH3-TRE-Luc cell line [3]) was 12.2 µM.
For `CCc1cc(OC)c(C[C@@H](C)N)cc1OC` [(-)-2,5-Dimethoxy-4-ethylamphetamine hydrochloride], the “resp_max GH3-TRE-Antag” value ([2]; Table S8) was 85.7 and the “resp_max GH3-TRE-Via” value (GH3-TRE-Luc cell line [4]; Table S8) was 62.2.
Work on `CCOC(=O)C1=C(COCCN)NC(C)=C(C(=O)OC)C1c1ccccc1Cl` (centres unmarked) [Amlodipine besylate, reference compound] yielded an AC50 [1, 14] of over 92 µM, an AC50 [2, 15] of 4.56 µM and an AC50 at 24 h (in vitro [5]) of 2.15 µM.
For `CC[C@H]1OC(=O)C[C@@H](O)[C@H](C)[C@@H](O[C@@H]2O[C@H](C)C[C@H](N(C)C)[C@H]2O)[C@@H](CC=O)C[C@@H](C)C(=O)/C=C/[C@]2(C)O[C@H]2[C@@H]1C` [Rosaramicin], the AC50 [1, 14] was over 92 µM, the AC50 [6] was 26.8 µM and the “Active in global cytotoxicity assays (%)” value [7] was 46.7%. It also gave an AC50 at 24 h (in vitro [5]) of 24.4 µM and a CC50 at 24 h (in vitro [8]) of 22.9 µM.
For `NCC(=O)CCC(=O)O` [Aminolevulinic acid hydrochloride], the “EMax (% of Control) gh3-tre-agonist” value [1] was 29.9 % of Control, the “GH3-TRE-Ag AC50 hitc” value ([1]; hit call from tcpl) was 1 and the “EMax (% of Control) gh3-tre-agonist-followup-1_agonist” value [9] was 43.5 % of Control. For the same compound, the GH3-TRE-Ag-Followup hitc ([9]; hit call from tcpl) was 1, the AC50 ([9]; read-out: GH3-TRE-Ag-Followup AC50) was 22.5 µM and the tr-followup-rxr-bla-agonist-1 hitc (human RXRα; hit call from tcpl) was 0. For the same compound, the Emax (human RXRα; read-out: EMax (% of Control) tr-followup-rxr-bla-agonist-1) was 13%, the AC50 (human RXRα; read-out: tr-followup-rxr-bla-agonist-1 AC50) was over 92 µM and the AC50 ([10]; agonist, read-out: TRa-coa AC50) was over 92 µM. The TRa-coa hitc ([10]; hit call from tcpl, agonist) was 0, the Emax ([10]; read-out: EMax (% of Control) tra-coa-agonist-followup-1) was 1.1% and the “GLOBAL CYTOTOXICITY cytotox.median” value [7] was over 92. The “GLOBAL CYTOTOXICITY cytotox.number_Active” value [7] was 0, the “Categorization Code” value [11] was “FP” and the TR_LUC_GH3_Antagonist_viability hitc (GH3-TRE-Luc cell line [3]; rat, 24 h) was 0. It also gave a CC50 at 24 h (in vitro [8]) of over 50 µM, an AC50 ([12]; agonist, read-out: TRb-bla AC50) of over 92 µM and a TRb-bla hitc ([12]; hit call from tcpl, agonist) of 0. For the same compound, the Emax ([12]; read-out: EMax (% of Control) trb-bla-agonist-followup-1) was 12.7%, the AC50 ([13]; agonist, read-out: TRb-coa AC50) was over 92 µM and the TRb-coa hitc ([13]; hit call from tcpl, agonist) was 0. It also gave an Emax ([13]; read-out: EMax (% of Control) trb-coa-agonist-followup-1) of 3.6% and an AC50 (GH3-TRE-Luc cell line [4]; Rattus norvegicus, read-out: TR_LUC_GH3_Antagonist_viability AC50 (uM)) of over 92 µM.
For `CNCC[C@H](Oc1cccc2ccccc12)c1cccs1` [Duloxetine hydrochloride, reference compound], the AC50 ([1]; read-out: GH3-TRE-Ag AC50) was over 92 µM, the AC50 ([2]; read-out: GH3-TRE-Antag AC50, antagonist mode, 1 nM T3) was 6.22 µM and the AC50 at 24 h (in vitro [5]) was 5.69 µM.
With `O=C(CO)[C@@H](O)[C@H](O)[C@@H](O)C(=O)O` [Calcium 5-ketogluconate] the “modl_tp (top asymptote for the winning model)” value ([1]; Table S2, aeid 803) was 2.81 percent_activity, the “resp_max (maximum response value)” value ([1]; Table S2, aeid 803, per sample) was 2.734 percent_activity and the hitc ([1]; Table S2, aeid 803, tcpl hit call) was 0. For the same compound, the hitc_modified ([1]; Table S2, aeid 803, final hitc after manual review) was 0, the AC50 ([1]; Table S2, aeid 803, inactive set to 1000, read-out: AC50 (uM) modified) was over 50 µM and the hitc ([2]; Table S2, aeid 804) was 0. The hitc_modified ([2]; Table S2, aeid 804) was 0, the “resp_max (maximum response value)” value ([2]; Table S2, aeid 804) was 6.735 percent_activity and the AC50 ([2]; Table S2, aeid 804, inactive set to 1000, read-out: AC50 (uM) modified) was over 50 µM. The AC50 (GH3-TRE-Luc cell line [3]) was over 50 µM, the hitc (GH3-TRE-Luc cell line [3]) was 0 and the hitc_modified (GH3-TRE-Luc cell line [3]) was 0. The CC50 at 24 h (in vitro [8]) was over 50 µM and the “resp_max (maximum response value)” value (GH3-TRE-Luc cell line [4]; Table S2, aeid 805) was 18.832 percent_activity.
In the case of `CN(C)S(=O)(=O)N(SC(F)(Cl)Cl)c1ccccc1` [Dichlofluanid], the “activity in GH3-TRE antagonist mode assay” value [2] is reported as “active”, the “cytotoxicity in GH3 viability assay” value (GH3-TRE-Luc cell line [3]) is reported as “loss of viability at virtually identical concentrations” and the CC50 at 24 h (in vitro [8]) is reported as 1.43 µM.
Work on `N=C1C=CC(=C(c2ccc(N)cc2)c2ccc(N)cc2)C=C1` [C.I. Basic Red 9 monohydrochloride] yielded an AC50 [1, 14] of over 92 µM, an AC50 [2, 15] of 5.15 µM and an AC50 [7] of 24.2 µM. The “Active in global cytotoxicity assays (%)” value [7] was 66.7%, the AC50 (GH3-TRE-Luc cell line [3]) was 8.8 µM and the CC50 at 24 h (in vitro [8]) was 8.8 µM.
